Laboratory results reported in patent publication US8119633B2, “Substituted sulfonamide compounds” (Gruenenthal GmbH, priority 2007, dated 2012).

What was measured:
human μ-opiate receptor = target: T1, human μ-opiate receptor (Homo sapiens, UniProt P35372); experiment: Affinity for the human μ-opiate receptor ([3H]-naloxone displacement, SPA); conditions: test substance 1 μmol/l; inhibition of specific [3H]-naloxone binding; CHO-K1 receptor membrane preparation; read-out: μ-Opioid receptor [1 μM] % inhibition
T1 construct: purchased PerkinElmer Life Sciences, Zaventem, Belgium RB-HOM; host or cells: CHO-K1 cells (membrane preparation)
Experimental: Studies of the Effectiveness of the Compounds According to the Invention Method for determining the affinity for the human μ-opiate receptor
The receptor affinity for the human μ-opiate receptor is determined in a homogeneous batch on microtitre plates. To this end, serial dilutions of the substances to be tested are incubated for 90 minutes at room temperature with a receptor membrane preparation (15-40 μg of protein/250 μl of incubation batch) of CHO-K1 cells, which express the human μ-opiate receptor (RB-HOM receptor membrane preparation from PerkinElmer Life Sciences, Zaventem, Belgium), in the presence of 1 nmol/l of the radioactive ligand [^3H]-naloxone (NET719, PerkinElmer Life Sciences, Zaventem, Belgium) and 1 mg of WGA-SPA beads (wheatgerm agglutinin SPA beads from Amersham/Pharmacia, Freiburg, Germany) in a total volume of 250 μl. The incubation buffer used is 50 mmol/l of Tris-HCl supplemented with 0.06 wt. % bovine serum albumin. In order to determine non-specific binding, 100 μmol/l of naloxone is additionally added. When the ninety-minute incubation time has ended, the microtitre plates are centrifuged off for 20 minutes at 1000 g and the radioactivity is measured in a β-counter (Microbeta-Trilux, PerkinElmer Wallac, Freiburg, Germany). The percentage displacement of the radioactive ligand from its binding to the human μ-opiate receptor at a concentration of the test substances of 1 μmol/l is determined and stated as the percentage inhibition of specific binding. On the basis of the percentage displacement by different concentrations of the test substances, IC50 inhibitory concentrations, which effect 50% displacement of the radioactive ligand, are calculated. Ki values for the test substances are obtained by conversion by means of the Cheng-Prusoff equation.

[1] = target: T2, human bradykinin receptor 1 (B1R) (Homo sapiens, UniProt P46663); experiment: Functional study on the bradykinin receptor 1 (B1R), human: FLIPR Ca2+ influx assay; assay type: cell-based; conditions: test substance 10 μM; CHO K1 cells transfected with human B1R; Lys-Des-Arg9-bradykinin at EC80; Ca2+ influx (Fluo-4, FLIPR); read-out: B1R antagonism, human [10 μM] % inhibition
T2 construct: expressed in transfected cells; host or cells: CHO K1 cells
T2 sequence (P46663 1-353): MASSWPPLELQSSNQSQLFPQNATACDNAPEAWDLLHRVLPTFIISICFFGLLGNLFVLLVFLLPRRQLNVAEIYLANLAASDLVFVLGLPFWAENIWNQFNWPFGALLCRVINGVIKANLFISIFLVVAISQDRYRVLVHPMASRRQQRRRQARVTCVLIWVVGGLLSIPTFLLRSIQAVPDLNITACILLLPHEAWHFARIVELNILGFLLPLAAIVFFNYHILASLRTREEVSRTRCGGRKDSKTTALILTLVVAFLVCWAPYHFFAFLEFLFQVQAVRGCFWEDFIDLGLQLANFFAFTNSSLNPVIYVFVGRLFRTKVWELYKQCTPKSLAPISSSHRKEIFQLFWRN
Outline: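 CHO K1 cells stably expressing human B1R were loaded with Fluo-4, and Ca2+ fluorescence was read on FLIPR (ex 488/em 540 nm). Compound was added first (10 μM for % activation against Lys-Des-Arg9-bradykinin ≥0.5 nM). After 10-20 min, Lys-Des-Arg9-bradykinin was added at EC80 for % inhibition; IC50 came from concentration series, n=2-3, N≥2.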

[2] = target: T3, bradykinin receptor 1 (B1R) of the rat (Rattus norvegicus, UniProt P97583); experiment: Functional study on the bradykinin receptor 1 (B1R), rat: FLIPR Ca2+ influx assay; assay type: cell-based; conditions: test substance 10 μM; CHO K1 cells transfected with rat B1R; Des-Arg9-bradykinin at EC80; Ca2+ influx (Fluo-4, FLIPR); read-out: B1R antagonism, rat [10 μM] % inhibition
T3 construct: expressed in transfected cells; host or cells: CHO K1 cells
T3 sequence (P97583 1-337): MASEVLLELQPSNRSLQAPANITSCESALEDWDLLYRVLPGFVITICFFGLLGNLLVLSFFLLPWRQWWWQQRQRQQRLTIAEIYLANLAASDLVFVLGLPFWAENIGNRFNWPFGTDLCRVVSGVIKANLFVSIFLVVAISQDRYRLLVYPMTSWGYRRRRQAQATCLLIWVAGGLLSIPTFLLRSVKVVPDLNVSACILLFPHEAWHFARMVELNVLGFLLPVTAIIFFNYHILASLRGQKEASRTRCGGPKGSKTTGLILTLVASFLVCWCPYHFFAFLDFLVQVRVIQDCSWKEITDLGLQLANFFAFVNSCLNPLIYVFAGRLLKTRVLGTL
Outline: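 CHO K1 cells stably expressing rat B1R, Fluo-4-loaded, read on FLIPR (ex 488/em 540 nm, peak fluorescence). Test substances added first (agonism vs 10 μM Des-Arg9-bradykinin), then after 10-20 min Des-Arg9-bradykinin at EC80; % inhibition and IC50 from concentration series, n=2-3, N≥2.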

T1 sequence (P35372 whole entry): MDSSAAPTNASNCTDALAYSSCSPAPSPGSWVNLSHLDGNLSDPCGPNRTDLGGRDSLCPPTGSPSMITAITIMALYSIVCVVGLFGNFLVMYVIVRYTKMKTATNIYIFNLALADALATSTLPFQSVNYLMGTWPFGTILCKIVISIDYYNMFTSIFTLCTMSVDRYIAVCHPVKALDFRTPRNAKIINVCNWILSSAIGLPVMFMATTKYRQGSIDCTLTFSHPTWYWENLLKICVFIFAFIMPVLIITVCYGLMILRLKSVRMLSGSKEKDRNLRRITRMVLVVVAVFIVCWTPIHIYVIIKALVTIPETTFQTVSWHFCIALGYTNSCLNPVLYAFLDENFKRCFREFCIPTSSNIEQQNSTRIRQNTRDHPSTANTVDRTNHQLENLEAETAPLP

Row | Structure (SMILES) | inhibition at 1 µM (human μ-opiate receptor) [%] | inhibition at 10 µM [1] [%] | inhibition at 10 µM [2] [%]
1 | O=C(CC1CCCN1S(=O)(=O)c1ccc(Cl)c(Cl)c1)NC1CCC(C(c2ccccc2)N2CCCC2)CC1 (stereo not drawn) [Example 105, 2-(1-(3,4-dichlorophenylsulfonyl)pyrrolidin-2-yl)-N-(4-(phenyl(pyrrolidin-1-yl)methyl)cyclohexyl)acetamide] | 76 | 99.5 | 24
2 | COc1cc(C)c(S(=O)(=O)N(C)CCCNC(=O)NC2CCC(C(c3ccccc3)N3CCCC3)CC2)c(C)c1C (stereo not drawn) [Example 3, 4-Methoxy-2,3,6,N-tetramethyl-N—(3-{3-[4-(phenylpyrrolidin-1-ylmethyl) -cyclohexyl]-ureido}propyl)benzenesulfonamide] | 71 | 80.8 | 58
3 | O=C(CC1C(=O)NCCN1S(=O)(=O)c1ccc(Cl)cc1Cl)NCC1CCC(C(c2ccccc2)N2CCOCC2)CC1 (stereo not drawn) [Example 55, 2-[1-(2,4-dichloro-benzenesulfonyl)-3-oxo-piperazin-2-yl]-N-[4-(morpholin-4-yl-phenyl-methyl)-cyclohexylmethyl]-acetamide] | 24 | 103 | 26
4 | O=C(CC1CCCCN1S(=O)(=O)c1ccc(Cl)c(Cl)c1)NCC1CCC(C(c2ccccc2)N2CCOCC2)CC1 (stereo not drawn) [Example 82, 2-[1-(3,4-dichloro-benzenesulfonyl)-piperidin-2-yl]-N-[4-(morpholin-4-yl-phenylmethyl)-cyclohexylmethyl]-acetamide] | 23 | 23.5 | 7
5 | CN1CCN(C(c2ccccc2)C2CCN(C(=O)CC(NS(=O)(=O)c3ccc4ccccc4c3)c3ccccc3)CC2)CC1 (stereo not drawn) [Example 114, N-(3-(4-((4-methylpiperazin-1-yl)(phenyl)methyl)piperidin-1-yl)-3-oxo-1-phenylpropyl)naphthalene-2-sulfonamide] | 40 | 93 | 71
6 | CN1CCN(C(Cc2ccccc2)C2CCN(C(=O)CC(NS(=O)(=O)c3ccc4ccccc4c3)c3ccccc3)CC2)CC1 (stereo not drawn) [Example 116, N-(3-(4-(1-(4-methylpiperazin-1-yl)-2-phenylethyl)piperidin-1-yl)-3-oxo-1-phenylpropyl)naphthalene-2-sulfonamide] | 7 | 102 | 93
7 | O=C(CC1CCCN1S(=O)(=O)c1ccc(Cl)c(Cl)c1)NC1CCC(C(CCc2ccccc2)N2CCOCC2)CC1 (stereo not drawn) [Example 78, 2-(1-(3,4-dichlorophenylsulfonyl)pyrrolidin-2-yl)-N-(4-(1-morpholino-3-phenylpropyl)cyclohexyl)acetamide] | 18 | 78.3 | 10
8 | O=C(CC1CCCN1S(=O)(=O)c1ccc(Cl)c(Cl)c1)NCC1CCC(C(CCc2ccccc2)N2CCOCC2)CC1 (stereo not drawn) [Example 74, 2-[1-(3,4-dichloro-benzenesulfonyl)-pyrrolidin-2-yl]-N-[4-(1-morpholin-4-yl-3-phenyl-propyl)-cyclohexylmethyl]-acetamide] | 7 | 54.7 | 19
9 | O=C(CC1C(=O)NCCN1S(=O)(=O)c1ccc(Cl)cc1Cl)NCC1CCC(C(CCc2ccccc2)N2CCOCC2)CC1 (stereo not drawn) [Example 56, 2-[1-(2,4-dichloro-benzenesulfonyl)-3-oxo-piperazin-2-yl]-N-[4-(1-morpholin-4-yl-3-phenyl-propyl)-cyclohexylmethyl]-acetamide] | 11 | 104 | 20
10 | O=C(CC1CCCCN1S(=O)(=O)c1ccc(Cl)c(Cl)c1)NC1CCC(C(c2ccccc2)N2CCCC2)CC1 (stereo not drawn) [Example 107, 2-(1-(3,4-dichlorophenylsulfonyl)piperidin-2-yl)-N-(4-(phenyl(pyrrolidin-1-yl)methyl)cyclohexyl)acetamide] | 78 | 102 | 26
